Measured values from patent US20090023714A1, “COMBINED PREPARATION OF A THIAZIDE DIURETIC AND A LOOP DIURETIC” (HEXAL AG, priority 2005, published 2009).
“Also recorded” adds a separate entry of the source.

Key:
healthy volunteers [1] = test: Diuretic effects on urinary excretion of Na+, K+, Mg2+ and Ca2+ in healthy volunteers (monotherapy and combinations); assay type: in vivo, human; details: for Na+ excretion during the first 3 hrs, monotherapy: 10 mg TORA, 25 mg HCT, 50 mg TA; for total K+ excretion, monotherapy: usual doses, 0-24 hrs and sub-periods, FIG. 2b
Method: (§1) The ethically approved trial was performed on 12 healthy volunteers (28-48years in age, 6 males, 6 females), who had given their written informed consent to the study. Prior to administration of a drug, the participants underwent a clinical check-up. The participants were kept on a standard diet, receiving a defined fluid (1.5 l/day) and salt intake (6 g NaCl; 100 mmol Na^+/day) three days before and throughout the study.
From that point of time, urine was collected following drug administration in 2 hour intervals until the 6th hour and then from the 6th to 9th hour, from the 9th to 12th hour and from the 12th to […]. An aliquot of the defined volume of the respective collection period was frozen until analyzed for Na^+, K^+, Cl^−, Ca^2+ Mg^2+ and creatinine using a “MODULAR” Analyzer (Roche Comp., Switzerland).
(§2) All data are expressed as mean values (±SEM). The diuretic-induced “net excretion” is defined as the difference between total excretion and control excretion (“baseline”) obtained for the respective period prior to treatment. The effect of diuretic monotherapy is compared with the combined treatment using ANOVA.

healthy volunteers [2] = test: Dose-response studies of natriuretic effect in healthy volunteers; assay type: in vivo, human; details: for range of linear dose-responsiveness of natriuretic effect / dose at which the maximum natriuretic effect is reached: FIG. 1; for dose at which the maximum natriuretic effect is reached: net Na+ excretion for the duration of action, oral; for duration of action (time until baseline excretion is reached again): oral single dose
Method: as §1
In accordance with earlier studies (35), urine was collected before the treatment period, i.e., from 24 hrs to 12 hrs and from 12 hrs to 0 hrs prior to oral drug administration (8 a.m.). From that point of time, urine was collected following drug administration in 2 hour intervals until the 6th hour and then from the 6th to 9th hour, from the 9th to 12th hour and from the 12th to […]. An aliquot of the defined volume of the respective collection period was frozen until analyzed for Na^+, K^+, Cl^−, Ca^2+ Mg^2+ and creatinine using a “MODULAR” Analyzer (Roche Comp., Switzerland).
as §2

SMILES | K+ excretion correlated with Na+ excretion (K+/Na+ ratio), 0-12 hrs (healthy volunteers [1]; 0-12 hrs, HCT alone versus HCT with 5 mg TORA, p<0.01) | K+ excretion correlated with Na+ excretion (K+/Na+ ratio), 0-24 hrs (healthy volunteers [1]; 0-24 hrs, HCT alone versus HCT with 5 mg TORA, p<0.01) | Na+ excretion during the first 3 hrs, monotherapy (healthy volunteers [1]; FIG. 2a) | K+/Na+ excretion ratio within the first three hours, monotherapy (healthy volunteers [1]; FIG. 2c) | total K+ excretion, monotherapy (healthy volunteers [1]) | range of linear dose-responsiveness of natriuretic effect (healthy volunteers [2]) | cumulative Na+ excretion induced by 25 mg compared with 50 mg (healthy volunteers [2]; during 12 hrs (time until baseline excretion is reached again)) | dose at which the maximum natriuretic effect is reached (healthy volunteers [2]) | duration of action (time until baseline excretion is reached again) (healthy volunteers [2]) | Na+ excretion during the 6-12 hrs and 12-24 hrs periods (rebound) (healthy volunteers [1]; 10 mg TORA monotherapy, FIG. 2a) | K+/Na+ excretion ratio 6-24 hrs, monotherapy (healthy volunteers [1]; after the duration of action, Na+ excretion below baseline, FIG. 2c) | Mg2+ excretion, monotherapy (healthy volunteers [1]; loop diuretic versus thiazide, FIG. 3) | Ca2+ excretion in relation to Na+ excretion, monotherapy (healthy volunteers [1]; loop diuretic versus thiazide, FIG. 2d)
NS(=O)(=O)c1cc2c(cc1Cl)NCNS2(=O)=O [HCT, hydrochlorothiazide] | 0.40 | 0.43 | higher Na^+ excretion than TA only during the first 3 hrs | nearly triple of that of the loop diuretic | higher than that following administration of the loop diuretic | narrow range of almost linear dose-responsiveness | not significantly different | 25 mg | 12 h | – | – | – | –
Nc1nc(N)c2nc(-c3ccccc3)c(N)nc2n1 [TA, triamterene] | – | – | – | – | less K^+ loss than HCT or TORA only for the 0-3 hrs period; also recorded: not superior to the loop diuretic | narrow range of almost linear dose-responsiveness | – | 50 mg | – | – | – | – | –
Cc1cccc(Nc2ccncc2S(=O)(=O)NC(=O)NC(C)C)c1 [TORA, torasemide] | – | – | by far in the highest increase of Na excretion | – | – | broader range of linear dose-responsiveness | – | – | 6 h | dropped below levels prior to drug administration | highest only after the duration of action of the loop diuretic | less magnesiuretic than the thiazide | higher for the loop diuretic than for the thiazide
